Among the test systems are SNB-19; SF-295; HOP-92; NCI-H460; OVCAR-8; OVCAR-4; EKVX; SK-MEL-28; HT-29; NCI-H23; OVCAR-5; UACC-257; HCT-15; SR; Malme-3M; COLO 205; NCI-H226; HCC 2998.
Holding throughout (experiment): inhibition of tumour cell growth, NCI panel, 48 h

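How tested: cells in 96-well plates exposed to compound for 48 hours at five concentrations. At the GI50, growth is halved.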 Calls of active or inactive are those of the source. Cut-off read from the data, not from the text of the source: active = GI50 up to about 1.1 µM and inactive = higher.

Consider `CC12CCC3c4ccc(O)cc4CCC3C1C/C(=N\O)C2O` (stereo unspecified), for which the GI50 in the test on SNB-19, in the test on SF-295, in the test on HOP-92, with NCI-H460, with OVCAR-8 and in the test with OVCAR-4 was > 100 µM (inactive) throughout. Further, the GI50 in the test with EKVX is 26.8 µM (inactive); in the test with SK-MEL-28, > 100 µM (inactive); with HT-29 it was 77.6 µM (inactive); in the test with NCI-H23, > 100 µM (inactive); in the test on OVCAR-5 it was > 100 µM (inactive); in the test on UACC-257 it was > 100 µM (inactive). The GI50 was above 100 µM in the test with HCT-15; > 100 µM (inactive) in the test on SR; > 100 µM (inactive) in the test on Malme-3M; > 100 µM (inactive) with COLO 205; > 100 µM (inactive) with NCI-H226.

Turning to `O=C(COC(=O)c1ccccc1)c1ccc(Br)cc1`, the GI50 in the test with SNB-19 is 16.9 µM (inactive); with SF-295, 15.8 µM (inactive); with HOP-92 it was 14.6 µM (inactive); in the test on NCI-H460 it was 18.5 µM (inactive); in the test on OVCAR-8, 12.5 µM (inactive); in the test on EKVX, 14.7 µM (inactive). For the same compound, the GI50 in the test on SK-MEL-28 is 16.9 µM (inactive); in the test with HT-29, 15.6 µM (inactive); in the test with NCI-H23, 18.3 µM (inactive); with HCC 2998, 13.3 µM (inactive); in the test on OVCAR-5, 10.7 µM (inactive); with UACC-257 it was 15.5 µM (inactive). For the same compound, the GI50 in the test on HCT-15 is 3.35 µM; with SR it was 2.15 µM (inactive); in the test on Malme-3M, 12.2 µM (inactive); in the test with COLO 205, 13.6 µM (inactive).

Regarding `CCCC1C2=C(C(=O)OC2=O)C2C(CC)CC3=C(C(=O)OC3=O)C12` (stereo unspecified), the GI50 in the test on SNB-19, with SF-295, in the test on HOP-92, with NCI-H460, with OVCAR-8 and in the test on EKVX was > 100 µM (inactive) each time. Moreover, the GI50 was > 100 µM (inactive) in the test on SK-MEL-28; > 100 µM (inactive) in the test with HT-29; > 100 µM (inactive) with NCI-H23; > 100 µM (inactive) in the test on OVCAR-5; > 100 µM (inactive) with UACC-257; above 100 µM with HCT-15. Moreover, the GI50 in the test with SR, in the test with COLO 205 and in the test with NCI-H226 was > 100 µM (inactive) throughout.

For `Oc1ccc(Cl)cc1C1=NC(/N=C\c2ccccc2)=NC(c2ccccc2)C1` (stereo unspecified), the GI50 in the test on SF-295 was > 100 µM (inactive); in the test with HOP-92, > 100 µM (inactive); with OVCAR-8, 20 µM (inactive); in the test on EKVX it was > 100 µM (inactive); with SK-MEL-28 it was > 100 µM (inactive); in the test on HT-29 it was 24.8 µM (inactive). Further, the GI50 in the test on NCI-H23 was 3.87 µM (inactive); with OVCAR-5, > 100 µM (inactive); in the test on UACC-257, > 100 µM (inactive); in the test with SR, 5.5 µM (inactive); with COLO 205 it was > 100 µM (inactive); in the test on NCI-H226, 37.8 µM (inactive).

Turning to `O=C1/C(=C/c2cccc([N+](=O)[O-])c2)N=C(c2ccccc2)N1c1nc2c(Cl)cc(Cl)cc2s1`, the GI50 was 23.1 µM (inactive) in the test on SNB-19; 33.6 µM (inactive) with SF-295; 24.6 µM (inactive) with HOP-92; 27.5 µM (inactive) in the test on NCI-H460; 22 µM (inactive) in the test on OVCAR-8; 24 µM (inactive) in the test on OVCAR-4. Also, the GI50 was 15.5 µM (inactive) in the test on EKVX; 40.7 µM (inactive) in the test with SK-MEL-28; 19.1 µM (inactive) with HT-29; 27.5 µM (inactive) with HCC 2998; 26.7 µM (inactive) with OVCAR-5; 30.1 µM (inactive) with UACC-257. Moreover, the figures for the GI50 in the test on HCT-15, in the test with SR and in the test with COLO 205 were 29.3 µM, 16.8 µM (inactive) and 31.8 µM (inactive), respectively.

In the case of `Cc1ccc(-c2ccc(Nc3c4ccccc4nc4ccccc34)cc2)cn1`, the GI50 in the test with SNB-19 was 5.86 µM (inactive); in the test with SF-295, 2.37 µM (inactive); with HOP-92, 0.322 µM (active); in the test on NCI-H460, 1.44 µM (inactive); in the test with OVCAR-8, 4.81 µM (inactive); in the test on EKVX, 6.64 µM (inactive). In addition, the GI50 in the test with SK-MEL-28 was 2.51 µM (inactive); with HT-29, 2.13 µM (inactive); in the test with NCI-H23, 4.66 µM (inactive); with HCC 2998, 29 µM (inactive); in the test on OVCAR-5, 19.5 µM (inactive); with UACC-257, 7.13 µM (inactive). The GI50 in the test with HCT-15 was 3.75 µM; in the test with SR, 2.07 µM (inactive); with COLO 205, 3.37 µM (inactive).

In the case of `COc1ccc2c(O)c3[n+](cc2c1OC)CCc1cc2c(cc1-3)OCO2`, the GI50 in the test with SNB-19 is > 100 µM (inactive); in the test with SF-295, 42.9 µM (inactive); in the test on HOP-92, > 100 µM (inactive); in the test on NCI-H460, 79.4 µM (inactive); with OVCAR-8 it was > 100 µM (inactive); with OVCAR-4, > 100 µM (inactive). For the same compound, the GI50 in the test on EKVX is > 100 µM (inactive); in the test on HT-29 it was 63.2 µM (inactive); with NCI-H23, > 100 µM (inactive); in the test with HCC 2998, > 100 µM (inactive); in the test on OVCAR-5, > 100 µM (inactive); in the test on UACC-257, > 100 µM (inactive). Also, the GI50 with HCT-15 was 84.3 µM; in the test on SR it was 39.3 µM (inactive); in the test on COLO 205 it was > 100 µM (inactive); in the test on NCI-H226, > 100 µM (inactive).

`c1ccc2c(c1)c1c(n2CCOCCN2CCOCC2)CCCC1`: the GI50 with SNB-19 is > 100 µM (inactive); in the test with SF-295 it was 23.9 µM (inactive); in the test with HOP-92, 29.2 µM (inactive); in the test on NCI-H460, 27.5 µM (inactive); in the test on OVCAR-8 it was 36.7 µM (inactive); with OVCAR-4 it was 14.3 µM (inactive). Besides, the GI50 in the test with EKVX was 30.9 µM (inactive); in the test on SK-MEL-28 it was 19.5 µM (inactive); with HT-29, 15.6 µM (inactive); in the test with NCI-H23, 32.3 µM (inactive); in the test with HCC 2998 it was > 10 µM (inactive); with OVCAR-5 it was 25.1 µM (inactive). Besides, the GI50 in the test on UACC-257 is 21.1 µM (inactive); in the test on HCT-15, 36.5 µM; with SR it was 30.3 µM (inactive); in the test with Malme-3M, 13.8 µM (inactive); with COLO 205, > 10 µM (inactive).

Take `C/C=C(/C)C(=O)O[C@H]1[C@H]2[C@@H]([C@@H](OC(C)=O)[C@H](C)C(=O)[C@@]34C[C@@H](C)C(=O)[C@]3(/C=C(\C)[C@H]1OC(C)=O)O4)C2(C)C`: the GI50 in the test on SNB-19 was 4.32 µM (inactive); in the test with SF-295, 3.89 µM (inactive); with HOP-92 it was 3.08 µM (inactive); in the test on NCI-H460, 1.31 µM (inactive); in the test on OVCAR-8 it was 3.48 µM (inactive); with OVCAR-4, 4.9 µM (inactive). Further, the GI50 was 3.83 µM (inactive) with EKVX; 6.46 µM (inactive) in the test with NCI-H23; 5.16 µM (inactive) in the test with HCC 2998; 3.94 µM (inactive) in the test with OVCAR-5; 4.09 µM (inactive) in the test with UACC-257; 3 µM in the test on HCT-15. Also, the results for the GI50 in the test on SR, in the test with COLO 205 and with NCI-H226 were 2.54 µM (inactive), 2.6 µM (inactive) and 3.51 µM (inactive), respectively.

As to `CCc1nnc2sc(-c3ccc(-c4ccc(Cl)cc4Cl)o3)nn12`, the GI50 is > 100 µM (inactive) in the test with SNB-19; 43.1 µM (inactive) in the test with SF-295; 21.4 µM (inactive) with HOP-92; 67 µM (inactive) in the test on NCI-H460; 71 µM (inactive) in the test with OVCAR-8; 84.7 µM (inactive) with OVCAR-4. Also, the GI50 in the test with EKVX is 54.8 µM (inactive); in the test with SK-MEL-28 it was > 100 µM (inactive); with HT-29, 96.2 µM (inactive); in the test on NCI-H23, 76.4 µM (inactive); in the test with OVCAR-5 it was > 100 µM (inactive); in the test with UACC-257, 43.9 µM (inactive). The GI50 was 61.7 µM with HCT-15; 40.3 µM (inactive) in the test on SR; > 100 µM (inactive) in the test on Malme-3M; 23.1 µM (inactive) with COLO 205; 50.6 µM (inactive) in the test on NCI-H226.

As for `O=C(NC(=S)Nc1ccc(Br)cc1)c1ccc2c(c1)Sc1ccccc1O2`, the GI50 with SNB-19 is 39.3 µM (inactive); with SF-295, 54.5 µM (inactive); in the test on HOP-92 it was 22.5 µM (inactive); with NCI-H460, > 100 µM (inactive); in the test with OVCAR-8, 50.1 µM (inactive); in the test with SK-MEL-28, > 100 µM (inactive). In addition, the GI50 in the test with HT-29 is > 100 µM (inactive); in the test on NCI-H23, > 100 µM (inactive); in the test on OVCAR-5 it was > 100 µM (inactive); in the test with UACC-257 it was > 100 µM (inactive); in the test on HCT-15 it was above 100 µM; in the test with SR, 36.6 µM (inactive). In addition, the GI50 with Malme-3M, in the test on COLO 205 and in the test with NCI-H226 was > 100 µM (inactive) throughout.

As for `Cc1cc2c(cc1-c1cc3c(cc1C)C(C(C)C)=C(O)C(=O)/C3=C\Nc1nc(-c3ccccc3)cs1)/C(=C/Nc1nc(-c3ccccc3)cs1)C(=O)C(O)=C2C(C)C`, the GI50 in the test on SNB-19 is 17.1 µM (inactive); in the test on SF-295, 15.6 µM (inactive); with HOP-92 it was 18.8 µM (inactive); in the test on NCI-H460 it was 18.2 µM (inactive); in the test on OVCAR-8 it was 25.6 µM (inactive); with OVCAR-4, 30.8 µM (inactive). Further, the GI50 is 18.2 µM (inactive) in the test with EKVX; 16.8 µM (inactive) with SK-MEL-28; 22.2 µM (inactive) in the test with HT-29; 15.5 µM (inactive) in the test on NCI-H23; > 10 µM (inactive) in the test with OVCAR-5; 21.8 µM (inactive) in the test on UACC-257. Besides, the GI50 is 25.4 µM in the test on HCT-15; 32.5 µM (inactive) in the test with SR; 33.8 µM (inactive) in the test with Malme-3M; 31.6 µM (inactive) with COLO 205; 22.2 µM (inactive) with NCI-H226.

Take `O=C1c2ccccc2C(=O)c2sc(Nc3ccccc3C(F)(F)F)nc21`: the GI50 in the test on SNB-19 is 21.5 µM (inactive); in the test on SF-295 it was 15.6 µM (inactive); in the test with HOP-92, 10.6 µM (inactive); with NCI-H460, 21.8 µM (inactive); in the test with EKVX it was 18.2 µM (inactive); with SK-MEL-28, 16.2 µM (inactive). The GI50 in the test on NCI-H23 is 15.7 µM (inactive); with HCC 2998, 15.5 µM (inactive); with OVCAR-5 it was 22.4 µM (inactive); with UACC-257, 15.6 µM (inactive); with HCT-15 it was 7.29 µM; in the test with SR it was 4.16 µM (inactive). Besides, the results for the GI50 in the test on Malme-3M and in the test with COLO 205 were 12.4 µM (inactive) and 8.89 µM (inactive), respectively.

Source of the values: ChEMBL document CHEMBL1201862, “PubChem BioAssay data set” (2004).
